{
  "source": "PubChem BioAssay AID2060352",
  "about": "(Molecular Pharmacology Branch, DTP, NCI, 2025);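 further: spheroids exposed to drugs for 7 days before readout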",
  "test_system": "616215-338-R-J1-PDC spheroid with HUVEC/MSC, viability",
  "experiment": "Anticancer human tumor 616215-338-R-J1-PDC patient-derived colon adenocarcinoma cell line growth inhibition [TAK]",
  "settings": "for IC50: curve of first compound; for viability, T/C: stronger effect = lower value",
  "from_the_text": "Combinatorial screen of targeted agents with TAK-243 and ipatasertib in multi-cell type tumor spheroids\nA high-throughput screen of multi-cell type tumor spheroids was designed to identify active combinations of targeted small molecules and TAK-243 or ipatasertib. Complex spheroids include a stromal component modeled by human endothelial cells (HUVEC) and fibroblasts modeled by human mesenchymal stem cells (MSCs). The concentration ranges selected for each drug and investigational agent were based upon clinically achievable concentrations if the clinical Cmax of the agent was known.\nCompounds. The drugs and investigational agents: TAK-243 (785004), ipatasertib (767898), everolimus (733504), selumetinib (741078), bortezomib (756655), trametinib (758246), ixazomib (758254), vemurafenib (761431), dabrafenib (764134), sapanisertib (764658), alpelisib (765974), and copanlisib (816437), were obtained from the National Cancer Institute (NCI) Developmental Therapeutics Program Chemical Repository. The FDA-approved anticancer drug set is available from the NCI Developmental Therapeutics Program. […] The stock solutions were prepared in dimethyl sulfoxide (DMSO, Sigma-Aldrich, St. Louis, MO, cat. D2650) at 800-fold the tested concentration and stored at -70 degrees C prior to their use. All drugs and investigational agents were tested over a range starting from a high concentration at or near the clinical Cmax and decreasing in half-log increments. If the clinical Cmax for an agent had not been determined, the highest concentration tested was 10 microM.\nNCI60 Cell Culture. NCI60 cell lines were obtained from the NCI Developmental Therapeutics Program Tumor Repository. For each lot of cells, the Repository performed Applied Biosystems AmpFLSTR Identifiler testing with PCR amplification to confirm consistency with the published Identifier STR profile for each cell line. Cells were kept in continuous culture for no more than 20 passages. The optimal seeding densities for each of the cell lines at each time point assessed were determined prior to performing the concentration response studies. Briefly, the NCI60 human tumor lines were grown as monolayers in RPMI 1640 medium supplemented with 10% FBS and 2 mmol/L L-glutamine.\nAn additional 2 lines were from the NCI60 cell line panel including melanomas, MALME-3M and SK-MEL-2. Pooled donor human umbilical vein endothelial cells (HUVEC, Lonza, cat. CC-2519) and human mesenchymal stem cells (hMSC, Lonza, cat. PT-2501) were purchased from Lonza (Walkersville, MD).\nPDMR cell lines were grown in complete medium (DC medium): Dulbecco's modified Eagle's medium (DMEM)/F12 supplemented with 5% fetal bovine serum (FBS), 2 mM L-glutamine, 100 U/mL penicillin and 100 µg/ml streptomycin, 0.4 µg/ml hydrocortisone, 10 ng/ml epidermal growth factor (EGF) recombinant human protein, 24 µg/mL adenine, and 0.1 mg/mL primocin. During culture from frozen stock vials, PDMR cells were cultured in the same medium containing 10 µM Y-27632 (see Table 3). The PDCs were cultured in complete DMEM/F12 media without 10 microM Y-27632 dihydrochloride for at least two passages prior to the screen. The pooled donor HUVEC and hMSC were cultured in endothelial cell growth medium 2 (PromoCell, Heidelberg, Germany, cat. C-22011) and mesenchymal stem cell growth medium 2 (PromoCell, cat. C-28009), respectively. For all experiments, HUVEC and hMSC were used at passages </=5.\nFor the pre-screen, cell seeding densities were determined from a titration spanning the range from 5,000 to 313 cells per well. The mct-spheroids including 60% malignant cells, 25% HUVEC and 15% MSC dispensed as a mixture into U-bottom Ultra-Low Attachment 384-well plates (Corning, NY)\nHigh-throughput Drug Combination Screening.\nPrior to their inoculation into 384-well plates, malignant cells, HUVEC, and hMSC were removed from T flasks using TrypLE express (Thermo Fisher Scientific, cat. 12605036) and harvested by centrifugation for 5 min at 233 x g. […]",
  "data": [
    {"smiles": "COC1CC2CCC(C)C(O)(O2)C(=O)C(=O)N2CCCCC2C(=O)OC(C(C)CC2CCC(OCCO)C(OC)C2)CC(=O)C(C)C=C(C)C(O)C(OC)C(=O)C(C)CC(C)C=CC=CC=C1C", "note": "(stereo not given) + CC(C)NCC(C(=O)N1CCN(c2ncnc3c2C(C)CC3O)CC1)c1ccc(Cl)cc1", "values": [
      {"measurement": "IC50", "setting": "second compound 0.3 µM", "result": "> 100", "unit": "nM"},
      {"measurement": "IC50", "setting": "second compound 0.949 µM", "result": "> 100", "unit": "nM"},
      {"measurement": "IC50", "setting": "second compound 3 µM", "result": 2.28, "unit": "nM"},
      {"measurement": "IC50", "setting": "second compound 9.49 µM", "result": "< 0.316", "unit": "nM"},
      {"measurement": "IC50", "setting": "second compound 30 µM", "result": "< 0.316", "unit": "nM"},
      {"measurement": "viability, T/C", "setting": "second compound 0.3 µM, first compound 0.000316 µM", "result": 133, "unit": "%"},
      {"measurement": "viability, T/C", "setting": "second compound 0.3 µM, first compound 0.001 µM", "result": 119, "unit": "%"},
      {"measurement": "viability, T/C", "setting": "second compound 0.3 µM, first compound 0.00316 µM", "result": 137, "unit": "%"},
      {"measurement": "viability, T/C", "setting": "second compound 0.3 µM, first compound 0.01 µM", "result": 129, "unit": "%"},
      {"measurement": "viability, T/C", "setting": "second compound 0.3 µM, first compound 0.0316 µM", "result": 130, "unit": "%"},
      {"measurement": "viability, T/C", "setting": "second compound 0.3 µM, first compound 0.1 µM", "result": 104, "unit": "%"},
      {"measurement": "viability, T/C", "setting": "second compound 0.949 µM, first compound 0.000316 µM", "result": 119, "unit": "%"},
      {"measurement": "viability, T/C", "setting": "second compound 0.949 µM, first compound 0.001 µM", "result": 125, "unit": "%"},
      {"measurement": "viability, T/C", "setting": "second compound 0.949 µM, first compound 0.00316 µM", "result": 111, "unit": "%"},
      {"measurement": "viability, T/C", "setting": "second compound 0.949 µM, first compound 0.01 µM", "result": 97.1, "unit": "%"},
      {"measurement": "viability, T/C", "setting": "second compound 0.949 µM, first compound 0.0316 µM", "result": 82.5, "unit": "%"},
      {"measurement": "viability, T/C", "setting": "second compound 0.949 µM, first compound 0.1 µM", "result": 80.3, "unit": "%"},
      {"measurement": "viability, T/C", "setting": "second compound 3 µM, first compound 0.000316 µM", "result": 61.5, "unit": "%"},
      {"measurement": "viability, T/C", "setting": "second compound 3 µM, first compound 0.001 µM", "result": 59.3, "unit": "%"},
      {"measurement": "viability, T/C", "setting": "second compound 3 µM, first compound 0.00316 µM", "result": 45.6, "unit": "%"},
      {"measurement": "viability, T/C", "setting": "second compound 3 µM, first compound 0.01 µM", "result": 38.3, "unit": "%"},
      {"measurement": "viability, T/C", "setting": "second compound 3 µM, first compound 0.0316 µM", "result": 35.8, "unit": "%"},
      {"measurement": "viability, T/C", "setting": "second compound 3 µM, first compound 0.1 µM", "result": 32.1, "unit": "%"},
      {"measurement": "viability, T/C", "setting": "second compound 9.49 µM, first compound 0.000316 µM", "result": 23.1, "unit": "%"},
      {"measurement": "viability, T/C", "setting": "second compound 9.49 µM, first compound 0.001 µM", "result": 20, "unit": "%"},
      {"measurement": "viability, T/C", "setting": "second compound 9.49 µM, first compound 0.00316 µM", "result": 17.2, "unit": "%"},
      {"measurement": "viability, T/C", "setting": "second compound 9.49 µM, first compound 0.01 µM", "result": 16.2, "unit": "%"},
      {"measurement": "viability, T/C", "setting": "second compound 9.49 µM, first compound 0.0316 µM", "result": 15.8, "unit": "%"},
      {"measurement": "viability, T/C", "setting": "second compound 9.49 µM, first compound 0.1 µM", "result": 14.9, "unit": "%"},
      {"measurement": "viability, T/C", "setting": "second compound 30 µM, first compound 0.000316 µM", "result": 9.82, "unit": "%"},
      {"measurement": "viability, T/C", "setting": "second compound 30 µM, first compound 0.001 µM", "result": 9.86, "unit": "%"},
      {"measurement": "viability, T/C", "setting": "second compound 30 µM, first compound 0.00316 µM", "result": 10.5, "unit": "%"},
      {"measurement": "viability, T/C", "setting": "second compound 30 µM, first compound 0.01 µM", "result": 9.81, "unit": "%"},
      {"measurement": "viability, T/C", "setting": "second compound 30 µM, first compound 0.0316 µM", "result": 8.34, "unit": "%"},
      {"measurement": "viability, T/C", "setting": "second compound 30 µM, first compound 0.1 µM", "result": 7.96, "unit": "%"}
    ]}
  ]
}
